From publication PMC6073568, “Efficient Lead Finding, Activity Enhancement and Preliminary Selectivity Control of Nuclear Receptor Ligands Bearing a Phenanthridinone Skeleton” (International Journal of Molecular Sciences, 2018)

Target: T1, LXRα (Homo sapiens, UniProt Q13133)
T1 construct: CMX-GAL4N-hLXRα-LBD; expressed in transfected cells; host or cells: HEK293
T1 sequence (Q13133 209-447 limits assumed): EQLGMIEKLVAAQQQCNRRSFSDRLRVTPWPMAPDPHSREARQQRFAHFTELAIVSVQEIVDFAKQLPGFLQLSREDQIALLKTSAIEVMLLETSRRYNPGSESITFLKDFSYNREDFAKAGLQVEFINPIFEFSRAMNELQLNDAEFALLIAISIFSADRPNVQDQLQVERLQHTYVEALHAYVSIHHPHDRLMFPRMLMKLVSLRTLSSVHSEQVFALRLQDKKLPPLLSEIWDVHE
Assay: LXRα reporter gene assay in HEK293
Format: cell-based
Details: read-out: LXRα antagonistic activity (IC50)

Row | Compound | IC50 [µM]
1 | CCCCn1c(=O)c2ccc(C)cc2c2cc(C(O)(C(F)(F)F)C(F)(F)F)ccc21 [Compound 36] | 12
2 | CCCCn1c(=O)c2ccc(O)cc2c2cc(C(O)(C(F)(F)F)C(F)(F)F)ccc21 [Compound 38] | 7

Target: T2, LXRβ (Homo sapiens, UniProt P55055)
T2 construct: CMX-GAL4N-hLXRβ-LBD; expressed in transfected cells; host or cells: HEK293
T2 sequence (P55055 222-460 limits assumed): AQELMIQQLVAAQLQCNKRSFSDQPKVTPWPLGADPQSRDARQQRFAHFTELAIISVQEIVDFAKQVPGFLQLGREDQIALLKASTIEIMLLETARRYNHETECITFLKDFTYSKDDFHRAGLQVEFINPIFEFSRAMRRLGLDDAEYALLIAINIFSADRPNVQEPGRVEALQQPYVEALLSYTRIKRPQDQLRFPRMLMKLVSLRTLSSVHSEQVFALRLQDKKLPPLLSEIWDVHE
Assay: LXRβ reporter gene assay in HEK293
Format: cell-based
Details: read-out: LXRβ antagonistic activity (IC50)

Row | Compound | IC50 [µM]
3 | CCCCn1c(=O)c2ccc(C)cc2c2cc(C(O)(C(F)(F)F)C(F)(F)F)ccc21 [Compound 36] | 3

Target: T3, AR (Homo sapiens, UniProt P10275)
T3 sequence (P10275 1-920): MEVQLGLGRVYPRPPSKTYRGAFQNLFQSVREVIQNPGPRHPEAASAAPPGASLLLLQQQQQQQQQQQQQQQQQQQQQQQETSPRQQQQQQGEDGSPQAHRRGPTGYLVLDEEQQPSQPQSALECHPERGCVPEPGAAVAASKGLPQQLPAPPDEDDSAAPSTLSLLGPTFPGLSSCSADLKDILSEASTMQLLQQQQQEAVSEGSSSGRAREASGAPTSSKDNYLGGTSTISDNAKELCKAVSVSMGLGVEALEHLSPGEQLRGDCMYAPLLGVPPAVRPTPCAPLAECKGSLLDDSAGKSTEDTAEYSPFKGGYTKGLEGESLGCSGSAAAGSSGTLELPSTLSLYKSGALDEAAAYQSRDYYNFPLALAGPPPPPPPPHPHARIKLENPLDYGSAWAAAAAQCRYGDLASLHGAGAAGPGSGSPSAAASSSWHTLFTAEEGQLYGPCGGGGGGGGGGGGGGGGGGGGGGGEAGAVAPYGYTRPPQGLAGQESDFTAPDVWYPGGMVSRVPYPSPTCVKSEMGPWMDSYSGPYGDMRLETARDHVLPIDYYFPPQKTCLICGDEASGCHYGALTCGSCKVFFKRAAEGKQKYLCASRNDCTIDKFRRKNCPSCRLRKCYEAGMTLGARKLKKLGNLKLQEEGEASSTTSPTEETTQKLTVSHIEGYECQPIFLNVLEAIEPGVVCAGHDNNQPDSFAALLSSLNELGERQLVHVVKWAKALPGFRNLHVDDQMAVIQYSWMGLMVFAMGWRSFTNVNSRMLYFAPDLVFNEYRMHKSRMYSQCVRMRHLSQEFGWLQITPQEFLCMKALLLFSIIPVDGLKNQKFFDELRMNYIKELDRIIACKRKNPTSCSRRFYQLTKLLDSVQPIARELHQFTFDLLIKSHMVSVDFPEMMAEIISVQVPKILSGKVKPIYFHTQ
Assay: AR reporter gene assay in HEK293
Format: cell-based
Details: reporter gene assay, HEK293; agonist dihydrotestosterone 0.3 nM; read-out: AR antagonistic activity (IC50), AR reporter gene

Row | Compound | IC50 [µM]
4 | CCCCn1c(=O)c2ccc(C)cc2c2cc(C(O)(C(F)(F)F)C(F)(F)F)ccc21 [Compound 36] | 6.4
5 | CCCCn1c(=O)c2ccc(O)cc2c2cc(C(O)(C(F)(F)F)C(F)(F)F)ccc21 [Compound 38] | > 3

Target: T4, GR (Homo sapiens, UniProt P04150)
T4 construct: expressed in transfected cells; host or cells: HEK293
T4 sequence (P04150 1-777): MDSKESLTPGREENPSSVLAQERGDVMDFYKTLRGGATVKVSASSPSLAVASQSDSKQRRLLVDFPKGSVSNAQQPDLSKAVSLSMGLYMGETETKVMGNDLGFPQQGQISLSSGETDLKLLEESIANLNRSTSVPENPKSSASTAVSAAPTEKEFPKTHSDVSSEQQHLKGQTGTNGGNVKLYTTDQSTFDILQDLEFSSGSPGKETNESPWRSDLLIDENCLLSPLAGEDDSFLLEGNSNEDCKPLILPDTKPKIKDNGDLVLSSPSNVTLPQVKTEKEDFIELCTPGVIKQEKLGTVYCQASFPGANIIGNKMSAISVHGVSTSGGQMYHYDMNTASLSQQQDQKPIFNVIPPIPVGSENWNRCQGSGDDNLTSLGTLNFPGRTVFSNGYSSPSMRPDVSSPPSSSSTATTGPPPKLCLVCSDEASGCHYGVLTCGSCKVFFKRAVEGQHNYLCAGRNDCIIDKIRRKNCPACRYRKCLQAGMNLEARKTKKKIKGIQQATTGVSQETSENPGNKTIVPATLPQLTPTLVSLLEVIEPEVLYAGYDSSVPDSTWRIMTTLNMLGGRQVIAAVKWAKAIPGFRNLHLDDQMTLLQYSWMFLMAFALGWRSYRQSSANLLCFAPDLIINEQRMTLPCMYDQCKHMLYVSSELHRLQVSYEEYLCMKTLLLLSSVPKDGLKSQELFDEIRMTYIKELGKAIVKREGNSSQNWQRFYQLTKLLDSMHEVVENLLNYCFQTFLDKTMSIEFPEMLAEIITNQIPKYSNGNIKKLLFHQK
Assay: GR reporter gene assay in HEK293
Format: cell-based
Details: reporter gene assay, HEK293; agonist dexamethasone 1 nM; read-out: GR antagonistic activity (IC50)

Row | Compound | IC50 [µM]
6 | CCCCn1c(=O)c2ccc(C)cc2c2cc(C(O)(C(F)(F)F)C(F)(F)F)ccc21 [Compound 36] | 16
7 | CCCCn1c(=O)c2ccc(O)cc2c2cc(C(O)(C(F)(F)F)C(F)(F)F)ccc21 [Compound 38] | > 20

Target: T5, PR (Homo sapiens, UniProt P06401)
T5 sequence (P06401 1-933): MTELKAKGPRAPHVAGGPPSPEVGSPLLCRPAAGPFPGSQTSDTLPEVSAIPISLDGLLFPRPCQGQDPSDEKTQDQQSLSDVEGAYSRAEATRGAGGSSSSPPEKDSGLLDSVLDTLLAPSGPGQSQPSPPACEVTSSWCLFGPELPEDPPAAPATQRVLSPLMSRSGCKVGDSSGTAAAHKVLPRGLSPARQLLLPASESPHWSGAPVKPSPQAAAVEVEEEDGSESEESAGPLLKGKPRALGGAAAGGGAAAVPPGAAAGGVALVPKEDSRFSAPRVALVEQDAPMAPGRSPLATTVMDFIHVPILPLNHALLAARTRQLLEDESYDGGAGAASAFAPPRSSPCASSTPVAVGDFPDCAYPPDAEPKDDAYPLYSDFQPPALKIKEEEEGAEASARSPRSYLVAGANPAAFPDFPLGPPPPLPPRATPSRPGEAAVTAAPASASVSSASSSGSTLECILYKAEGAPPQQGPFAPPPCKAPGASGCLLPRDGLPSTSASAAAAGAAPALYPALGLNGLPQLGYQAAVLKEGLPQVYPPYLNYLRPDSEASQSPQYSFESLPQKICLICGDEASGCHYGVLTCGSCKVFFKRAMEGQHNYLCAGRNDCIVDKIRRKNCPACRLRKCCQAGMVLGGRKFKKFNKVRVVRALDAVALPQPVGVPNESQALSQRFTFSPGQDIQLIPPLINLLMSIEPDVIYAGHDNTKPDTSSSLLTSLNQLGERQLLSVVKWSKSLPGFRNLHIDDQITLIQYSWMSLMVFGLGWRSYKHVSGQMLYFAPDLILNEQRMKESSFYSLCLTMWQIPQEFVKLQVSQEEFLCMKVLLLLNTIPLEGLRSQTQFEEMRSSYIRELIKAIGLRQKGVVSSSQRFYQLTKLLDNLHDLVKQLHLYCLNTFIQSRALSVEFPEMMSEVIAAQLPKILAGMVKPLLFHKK
Assay: not given
Details: alkaline phosphatase, T47D cells, progesterone 1 nM; read-out: PR antagonistic activity (IC50); cited from earlier work

Row | Compound | IC50 [µM]
8 | CCCCn1c(=O)c2ccc(C)cc2c2cc(C(O)(C(F)(F)F)C(F)(F)F)ccc21 [Compound 36] | 3.7
9 | CCCCn1c(=O)c2ccc(O)cc2c2cc(C(O)(C(F)(F)F)C(F)(F)F)ccc21 [Compound 38] | 5.1
